One assay concerns ACHN. Description: Bulk cancer cells, Cell Titer-Glo 72 hours (Test Example 2). The following applies: Homo sapiens, ACHN, 72 h. The assay is classed as cell-based. How it is done:
(§1) Tubes of 3× drug (60 uM in 500 uL complete media) were prepared from 5 mM stock solutions in DMSO. […] To treat cells, 50 uL of drug from the dilution plate was removed and added to the cell plates. […] Cells were harvested 72 hours after drug addition using Cell Titer-Glo (Promega) and luminescence measured on a plate reader.
(In general: Cellular ATP, detected with luciferase, serves as a proxy for viable cell number.)

Another assay deals with FaDu. The description is as above. The following applies: Homo sapiens. The assay is classed as cell-based. On the procedure: as §1
The test system of a further assay is FaDu CSC. The assay can be described thus: Cancer stem cells, Cell Titer-Glo 72 hours (Test Example 3). The assay is classed as cell-based. The conditions noted are these: Homo sapiens, FaDu, 72 h.
For another assay, the target named is T1, human RIOK2 protein (Homo sapiens, UniProt Q9BVS4).
T1 construct: glutathione S-transferase is fused to N-terminal of a full-length human RIOK2 protein; GST (glutathione S-transferase) (N); purchased CarnaBio, Inc; host or cells: baculovirus-Sf21 cell expression system
T1 sequence (Q9BVS4 whole entry, the tested form may be a part): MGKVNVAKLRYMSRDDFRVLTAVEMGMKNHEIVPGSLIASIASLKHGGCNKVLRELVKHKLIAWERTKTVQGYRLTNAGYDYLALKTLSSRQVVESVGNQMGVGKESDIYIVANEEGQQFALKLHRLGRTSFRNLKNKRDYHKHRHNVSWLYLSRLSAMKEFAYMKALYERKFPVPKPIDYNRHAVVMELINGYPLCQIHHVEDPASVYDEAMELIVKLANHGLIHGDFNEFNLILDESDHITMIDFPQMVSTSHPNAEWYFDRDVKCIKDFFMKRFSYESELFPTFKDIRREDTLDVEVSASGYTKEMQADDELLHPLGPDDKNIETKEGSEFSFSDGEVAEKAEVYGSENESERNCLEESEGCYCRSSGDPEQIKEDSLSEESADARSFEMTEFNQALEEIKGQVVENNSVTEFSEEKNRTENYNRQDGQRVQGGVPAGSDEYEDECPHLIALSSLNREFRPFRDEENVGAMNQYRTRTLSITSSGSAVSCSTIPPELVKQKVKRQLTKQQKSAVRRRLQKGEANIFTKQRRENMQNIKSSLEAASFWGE
The assay can be described thus: RIOK2 autophosphorylation ELISA (Test Example 4). Type of assay: biochemical. The conditions noted are these: for inhibition at 10 µM: read-out: Inhibitory activity at 10 μM (%); for inhibition at 1 µM: read-out: Inhibitory activity at 1 μM (%). How it is done: A protein in which glutathione S-transferase is fused to N-terminal of a full-length human RIOK2 protein was used as a recombinant human RIOK2 protein. The protein was prepared using a baculovirus-Sf21 cell expression system from CarnaBio, Inc. A kinase reaction solution was prepared by mixing 25 μg/mL of the recombinant human RIOK2 protein and 100 μM of ATP in 20 μl of kinase reaction buffer (50 mM Tris-HCl, 10 mM MgCl2, 10 mM MnCl2, 1 mM DTT, 0.01% Brij, 1× PhosSTOP (manufactured by Roche Applied Science)), and was incubated at a temperature of 30° C. for 1 hour. After adding 30 μl of 40 mM EDTA solution to this kinase reaction solution, the kinase reaction solution was transferred to a MaxiSorp 96 well plate (manufactured by Nunc). Thereafter, phosphorylated human RIOK2 protein was allowed to adsorb onto the wells by leaving the plate in a refrigerator overnight.
The following day, the supernatant was removed, and the wells were washed three times with ELISA buffer (20 mM Tris-HCl, 150 mM NaCl, 0.2% Tween-20, 0.1% BSA). Thereafter, 100 μl of Blocking-One P (product name; manufactured by Nacalai Tesque, Inc.) was applied to the wells, and a blocking treatment was performed for 1 hour at room temperature. […] After further washing the wells, a secondary antibody, anti-rabbit IgG conjugated with horseradish peroxidase (manufactured by Jackson ImmunoResearch; 1/4000 ELISA buffer-diluted solution), was applied to the wells, and incubation was performed for 30 minutes at room temperature. After washing the wells once again, 50 μl of tetramethyl benzidine (TMB) aqueous solution (manufactured by Nacalai Tesque, Inc.) was applied to the wells, and a coloring reaction was performed for 30 minutes at room temperature. Thereafter, the coloring reaction was stopped by adding 50 μl of 2M H2SO4 to the wells. An absorptiometric level of 450 nm was measured in each well using ARVO SX (manufactured by Wallac).
In general terms: An ELISA detects its analyte on a solid surface through an enzyme-linked reagent.

For another assay, the system named is A549. Description: Bulk cancer cells, Cell Titer-Glo 72 hours (Test Example 2). Type of assay: cell-based. The conditions noted are these: Homo sapiens. On the procedure: as §1
The next assay deals with A549 CSC. The assay can be described thus: Cancer stem cells, Cell Titer-Glo 72 hours (Test Example 3). The assay is classed as cell-based. The conditions noted are these: Homo sapiens.
The test system of a further assay is ACHN CSC. The description is as above. The assay is classed as cell-based. The conditions noted are these: Homo sapiens, ACHN, 72 h.

SMILES strings stand for the structures. Where a name gives a salt, the structure may show the parent alone.

Take `CCN(CC)CCNC(=O)c1c(C)[nH]c(/C=C2\C(=O)Nc3ccc(-c4ccc(-c5ccccc5)s4)cc32)c1C` [Example 1, (Z)-N-(2-(diethylamino)ethyl)-2,4-dimethyl-5-((2-oxo-5-(5-phenylthiophen-2-yl)indolin-3-ylidene)methyl)-1H-pyrrole-3-carboxamide]: the values for the IC50 in the assay on ACHN, in the assay with FaDu and in the assay on FaDu CSC were 7.6 µM, 4.74 µM and 1.2 µM, respectively. Further, the inhibition at 10 µM at human RIOK2 protein came out at 14%.

With `Cc1[nH]c(/C=C2\C(=O)Nc3ccc(-c4nnc(-c5ccccc5)s4)cc32)c(C)c1C(=O)N1CCN(C)CC1` [Example 2], the results for the IC50 in the assay with A549, in the assay on FaDu and in the assay on FaDu CSC were 48.9 µM, 14.1 µM and 0.23 µM, respectively. For the same compound, the inhibition at 10 µM on human RIOK2 protein was 19%.

`Cc1[nH]c(/C=C2\C(=O)Nc3ccc(-c4ccc(-c5ccccc5)s4)cc32)c(C)c1C(=O)N1CCN(C)CC1` [Example 3]: the IC50 in the assay with FaDu is 25.4 µM; in the assay on FaDu CSC it was 1.16 µM. Besides, the inhibition at 10 µM on human RIOK2 protein amounted to 65%.

For the compound `CCN(CC)CCNC(=O)c1c(C)[nH]c(/C=C2\C(=O)Nc3ccc(-c4cnn(-c5ccccc5)c4)cc32)c1C` [Example 4], the 50% inhibitory concentration (IC50) with A549 came to 5.35 µM; in the assay with ACHN, 2.28 µM; with FaDu, 6.25 µM; in the assay with FaDu CSC, 0.6 µM; in the assay with A549 CSC, 4.83 µM. Moreover, the inhibition at 1 µM on human RIOK2 protein stood at 45%. In addition, the inhibition at 10 µM at human RIOK2 protein was determined as 94%.

Consider `CCN(CC)CCNC(=O)c1c(C)[nH]c(/C=C2\C(=O)Nc3ccc(-c4ncc(-c5ccccc5)o4)cc32)c1C` [Example 19], for which the IC50 in the assay on FaDu turned out to be 7.35 µM; with FaDu CSC, 27.6 µM; with A549 CSC, 0.35 µM. In addition, on human RIOK2 protein, the inhibition at 1 µM came to 32%. The inhibition at 10 µM on human RIOK2 protein came to 56%.

As to `CCN(CC)CCNC(=O)c1c(C)[nH]c(/C=C2\C(=O)Nc3ccc(-c4ccnn4-c4ccccc4)cc32)c1C` [Example 22], the IC50 with A549 is 2.94 µM; in the assay with ACHN it was 6.57 µM; in the assay on FaDu, 3.01 µM; in the assay on FaDu CSC, 3.46 µM; with A549 CSC it was 5.54 µM; with ACHN CSC, 1.17 µM. Also, the inhibition at 1 µM on human RIOK2 protein was found to be 55%. At human RIOK2 protein, the inhibition at 10 µM turned out to be 100%.

Regarding `CCN(CC)CCNC(=O)c1c(C)[nH]c(/C=C2\C(=O)Nc3ccc(-c4cnn(C5CCOCC5)c4)cc32)c1C` [Example 47], the IC50 turned out to be 16 µM in the assay with A549, 10.4 µM in the assay on ACHN, 4.22 µM in the assay on FaDu and 2.57 µM in the assay on FaDu CSC. For the same compound, the inhibition at 1 µM on human RIOK2 protein was determined as 32%. Also, at human RIOK2 protein, the inhibition at 10 µM was 68%.

For `CCN(CC)CCNC(=O)c1c(C)[nH]c(/C=C2\C(=O)Nc3ccc(-c4cnn(-c5ncccn5)c4)cc32)c1C` [Example 70], on human RIOK2 protein, the inhibition at 1 µM turned out to be 42% and the inhibition at 10 µM was 112%.

For the compound `CCN(CC)CCNC(=O)c1c(C)[nH]c(/C=C2\C(=O)Nc3ccc(-c4cnn(-c5ccccc5Cl)c4)cc32)c1C` [Example 71], at human RIOK2 protein, the inhibition at 1 µM is 4% and the inhibition at 10 µM came out at 99%.

Regarding `CCN(CC)CCNC(=O)c1c(C)[nH]c(/C=C2\C(=O)Nc3ccc(-c4cnn(-c5cscn5)c4)cc32)c1C` [Example 72], at human RIOK2 protein, the inhibition at 1 µM came out at 41% and the inhibition at 10 µM is 99%.

As to `CCN(CC)CCNC(=O)c1c(C)[nH]c(/C=C2\C(=O)Nc3ccc(-c4cnn(-c5nccs5)c4)cc32)c1C` [Example 73], at human RIOK2 protein, the inhibition at 1 µM came to 18% and the inhibition at 10 µM was found to be 111%.

As to `CCN(CC)CCNC(=O)c1c(C)[nH]c(/C=C2\C(=O)Nc3ccc(-c4cnn(-c5ccc(S(N)(=O)=O)cc5)c4)cc32)c1C` [Example 74], on human RIOK2 protein, the inhibition at 1 µM came out at 26% and the inhibition at 10 µM came out at 71%.

For the compound `CCN(CC)CCNC(=O)c1c(C)[nH]c(/C=C2\C(=O)Nc3ccc(-c4cnn(-c5cccnc5)c4)cc32)c1C` [Example 79], at human RIOK2 protein, the inhibition at 1 µM worked out at 42% and the inhibition at 10 µM came to 82%.

Take `Cc1[nH]c(/C=C2\C(=O)Nc3ccc(-c4cnn(-c5ccccc5)c4)cc32)c(C)c1C(=O)N[C@H]1CCCNC1` [Example 88, (S,Z)-2,4-dimethyl-5-((2-oxo-5-(1-phenyl-1H-pyrazol-4-yl)indolin-3-ylidene)methyl)-N-(piperidin-3-yl)-1H-pyrrole-3-carboxamide hydrochloride]: at human RIOK2 protein, the inhibition at 1 µM was found to be 1.4% and the inhibition at 10 µM turned out to be 122%.

On to `Cc1[nH]c(/C=C2\C(=O)Nc3ccc(-c4cnn(-c5ccccc5)c4)cc32)c(C)c1C(=O)N[C@@H]1CCCNC1` [Example 89], for which, on human RIOK2 protein, the inhibition at 1 µM worked out at 22% and the inhibition at 10 µM worked out at 130%.

With `CCN(CC)CCCNC(=O)c1c(C)[nH]c(/C=C2\C(=O)Nc3ccc(-c4cnn(-c5ccccc5)c4)cc32)c1C` [Example 90], at human RIOK2 protein, the inhibition at 1 µM was 20% and the inhibition at 10 µM came out at 96%.

As for `CCOCCCNC(=O)c1c(C)[nH]c(/C=C2\C(=O)Nc3ccc(-c4cnn(-c5ccccc5)c4)cc32)c1C` [Example 91], on human RIOK2 protein, the inhibition at 1 µM is -7% and the inhibition at 10 µM was 43%.

Take `CCN(CC)CCN(C)C(=O)c1c(C)[nH]c(/C=C2\C(=O)Nc3ccc(-c4cnn(-c5ccccc5)c4)cc32)c1C` [Example 92]: on human RIOK2 protein, the inhibition at 1 µM stood at 3% and the inhibition at 10 µM is 113%.

For the compound `Cc1[nH]c(/C=C2\C(=O)Nc3ccc(-c4cnn(-c5ccccc5)c4)cc32)c(C)c1C(=O)NCC1(N)CCCC1` [Example 93], on human RIOK2 protein, the inhibition at 1 µM worked out at 7% and the inhibition at 10 µM was 65%.

On to `Cc1[nH]c(/C=C2\C(=O)Nc3ccc(-c4cnn(-c5ccccc5)c4)cc32)c(C)c1C(=O)NC1CCNCC1` [Example 94], for which, on human RIOK2 protein, the inhibition at 1 µM amounted to 17% and the inhibition at 10 µM was 140%.

As for `Cc1[nH]c(/C=C2\C(=O)Nc3ccc(-c4cnn(-c5ccccc5)c4)cc32)c(C)c1C(=O)NC1[C@H]2CNC[C@@H]12` (some centres unmarked) [Example 95], on human RIOK2 protein, the inhibition at 1 µM is 22% and the inhibition at 10 µM was 134%.

Turning to `Cc1[nH]c(/C=C2\C(=O)Nc3ccc(-c4cnn(-c5ccccc5)c4)cc32)c(C)c1C(=O)NC1CNCC(c2ccccc2)C1` (centres unmarked) [Example 96], at human RIOK2 protein, the inhibition at 1 µM was -13% and the inhibition at 10 µM was 69%.

In the case of `Cc1[nH]c(/C=C2\C(=O)Nc3ccc(-c4cnn(-c5ccccc5)c4)cc32)c(C)c1C(=O)NC1(CN2CCCCC2)CC1` [Example 97], on human RIOK2 protein, the inhibition at 1 µM worked out at 6% and the inhibition at 10 µM amounted to 107%.

Take `Cc1[nH]c(/C=C2\C(=O)Nc3ccc(-c4cnn(-c5ccccc5)c4)cc32)c(C)c1C(=O)NCCc1ncc[nH]1` [Example 98]: on human RIOK2 protein, the inhibition at 1 µM was -2% and the inhibition at 10 µM was 25%.

Turning to `Cc1[nH]c(/C=C2\C(=O)Nc3ccc(-c4cnn(-c5ccccc5)c4)cc32)c(C)c1C(=O)NCc1nc2ccccc2[nH]1` [Example 99], at human RIOK2 protein, the inhibition at 1 µM was -11% and the inhibition at 10 µM worked out at 79%.

Take `Cc1[nH]c(/C=C2\C(=O)Nc3ccc(-c4cnn(-c5ccccc5)c4)cc32)c(C)c1C(=O)NC[C@H]1CCCN1` [Example 100]: at human RIOK2 protein, the inhibition at 1 µM turned out to be 9% and the inhibition at 10 µM stood at 126%.

On to `Cc1[nH]c(/C=C2\C(=O)Nc3ccc(-c4cnn(-c5ccccc5)c4)cc32)c(C)c1C(=O)NC[C@@H]1CCCN1` [Example 101], for which, on human RIOK2 protein, the inhibition at 1 µM was determined as 13% and the inhibition at 10 µM was 94%.

The term IC50 denotes the concentration needed to halve the response being measured. Read a low IC50 as higher potency.

For the origin of these results see patent publication US20190241569A1, “3-(ARYL OR HETEROARYL) METHYLENEINDOLIN-2-ONE DERIVATIVES AS INHIBITORS OF CANCER STEM CELL PATHWAY KINASES FOR THE TREATMENT OF CANCER” (Boston Biomedical, Inc., priority 2013, published 2019).
